Assay results taken from ChEMBL document CHEMBL2029257, “Copper-Free Click for PET: Rapid 1,3-Dipolar Cycloadditions with a Fluorine-18 Cyclooctyne” (ACS Med Chem Lett, 2011).

What was measured:
Assay type in all cases: ADME, cell-free
[1] = (§1) Metabolic stability in Sprague-Dawley rat serum assessed as compound remaining at 2 MBq at 2 hrs by RP-HPLC analysis; details: Sprague-Dawley, read-out: Stability
[2] = Metabolic stability in Sprague-Dawley rat serum assessed as compound remaining at 2 MBq at 1 hr by RP-HPLC analysis; details: read-out: Stability
Serum = assay: as §1; details: 2 h

Row | remaining at 2 h, 2 MBq [1] | remaining at 1 h, 2 MBq [2] | Stability (Serum) | SMILES
1 | 96.8% | > 98% | – | O=C(O)COCC(=O)NCCOCCOCCOCCOCCOCCOCCOCCOCCn1nnc2c1-c1ccccc1CN(C(=O)CCCCCNC(=O)c1ccc([18F])cc1)c1ccccc1-2
2 | – | > 98% | Stable | O=C(NCCCCCC(=O)N1Cc2ccccc2C#Cc2ccccc21)c1ccc([18F])cc1
